How the values were obtained:
Hep G2 cells = experiment: Flow cytometry (FACS) cell cycle analysis; assay type: cell-based, human; details: various concentrations of TB, 15 h after release from quiescence; dose-dependent
Hep 3B cells = experiment: Flow cytometry (FACS) cell cycle analysis; assay type: cell-based, human; details: TB 10-150 μM, 15 h
[1] = system: p53 and p21/Cip1 protein in COLO 205 tumor; experiment: Western blot of COLO 205 tumor; assay type: in vivo, nude mouse; details: tumor isolated at 6 weeks after TB treatment
Procedure: Western blot analyses show the levels of p53 and p21/Cip1 protein in COLO 205 tumor (C). COLO 205 tumors were isolated for protein extraction at 6 weeks after DMSO or TB treatment. Membranes were also probed with anti-GAPDH antibody to correct for differences in protein loading. […] Western blot analysis was performed as previously described (Chen R J, et. al., Toxicology & Applied Pharmacology 2000;169(2):132-41; Lee W S, et. al., Circulation Research 1998;82(8):845-51.). Immunodetection was carried by probing with proper dilutions of specific antibodies at room temperature for 2 h. Anti-p21/Cip1, anti-p27/Kip1, anti-p53, anti-GAPDH monoclonal antibodies (Santa Cruz, Inc. CA); anti-cyclin B1, D1, and D3, anti-cdk2 and cdk4, and PCNA monclonal antibodies (Transduction Laboratories, Lexington, Ky.) were used at a concentration of 1:1,000 dilution. Anti-cyclin A and E polyclonal antibodies (Transduction, San Diego, Calif.) were used at a concentration of 1:250 dilution. […] In each experiment, membranes were also probed with anti-GAPDH antibody to correct for differences in protein loading.

[2] = system: p53, p21/Cip1 and p27/Kip1 protein in COLO 205 tumor tissues; experiment: Immunocytochemical staining of COLO 205 tumor tissues; assay type: in vivo, nude mouse; details: TB-treated vs DMSO-treated nude mice
[3] = cited from earlier work

CN(C/C=C/C#CC(C)(C)C)Cc1cccc2ccccc12 [TB, 1-Naphthalenemethanamine, N-(6,6-dimethyl-2-hepten-4-ynyl)-N-methyl-, (E)-]
G0/G1 arrest, dose effect (Hep G2 cells): induced G0/G1 arrest
apoptosis (presence of sub G1) (Hep 3B cells): dose-dependently caused the occurrence of apoptosis
G0/G1 arrest (Hep 3B cells; p53 partial deleted cells): did not induce G0/G1 arrest
contents of p53 and p21/Cip1 in tumor [1]: increased
p53, p21/Cip1 and p27/Kip1 immunoreactivities in tumor tissues [2]: strongly induced
tissue accumulation ([3]; adipose tissues, keratin-rich tissues (dermis, epidermis, nail) and other organ tissues): extensively accumulates
tissue concentrations relative to plasma ([3]; as early as 1 day after stop of medication): exceeded that of plasma

Reference: patent US20050032904A1, “Composition and use of allylamine derivatives” (priority 2003, published 2005)
